34 molecules from US20170291905A1, “ARGININE […] INHIBITORS AND USES THEREOF” (Epizyme, Inc., priority 2014, published 2017) can be followed below.

Counter-ions that a name gives are not always drawn.

The target of the test is T1, full-length human PRMT1 isoform 1 (GST-tagged) (Homo sapiens, UniProt Q99873).
T1 construct: GST-tagged PRMT1 was eluted with 50 mM Tris, 2 mM glutathione, pH 7.8, dialysed in buffer A and concentrated; made in house; host or cells: High Five insect cells (baculovirus)
T1 sequence (Q99873 with tags, fused parts or gaps): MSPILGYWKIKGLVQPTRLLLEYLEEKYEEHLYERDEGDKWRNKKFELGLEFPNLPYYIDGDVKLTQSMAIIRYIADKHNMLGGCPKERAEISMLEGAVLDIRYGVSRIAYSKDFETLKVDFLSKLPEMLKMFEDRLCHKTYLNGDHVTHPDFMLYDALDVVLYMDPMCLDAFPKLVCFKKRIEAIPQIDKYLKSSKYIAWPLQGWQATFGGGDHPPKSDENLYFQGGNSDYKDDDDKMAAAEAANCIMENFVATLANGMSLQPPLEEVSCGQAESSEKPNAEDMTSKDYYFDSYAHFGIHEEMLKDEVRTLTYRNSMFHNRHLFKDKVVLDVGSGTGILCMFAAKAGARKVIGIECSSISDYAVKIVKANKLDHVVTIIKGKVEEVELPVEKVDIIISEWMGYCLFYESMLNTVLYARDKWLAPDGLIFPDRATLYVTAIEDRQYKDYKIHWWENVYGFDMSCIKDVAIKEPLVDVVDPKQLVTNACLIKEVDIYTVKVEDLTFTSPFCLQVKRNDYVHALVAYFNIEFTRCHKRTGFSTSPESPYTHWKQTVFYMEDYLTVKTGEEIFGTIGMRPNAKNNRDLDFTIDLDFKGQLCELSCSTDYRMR
As to the kind of experiment: PRMT1 biochemical assay (3H-SAM Flashplate, histone H4 36-50 peptide). The settings on record: 0.5 nM PRMT1, 30 min preincubation, 20 nM peptide. The text has this:
S-adenosylmethionine (SAM), S-adenosylhomocysteine (SAH), bicine, Tween20, dimethylsulfoxide (DMSO), bovine skin gelatin (BSG), and Tris(2-carboxyethyl)phosphine hydrochloride solution (TCEP) were purchased from Sigma-Aldrich at the highest level of purity possible. ^3H-SAM was purchase from American Radiolabeled Chemicals with a specific activity of 80 Ci/mmol. 384-well streptavidin Flashplates were purchased from PerkinElmer.
Peptide representative of human histone H4 residues 36-50 was synthesized with an N-terminal linker-affinity tag motif and a C-terminal amide cap by 21st Century Biochemicals. The peptide was purified by high-performance liquid chromatography (HPLC) to greater than 95% purity and confirmed by liquid chromatography mass spectrometry (LC-MS). The sequence was Biot-Ahx-[…]-amide (SEQ ID NO.:1).
Full-length human PRMT1 isoform 1 (NM_001536.5) transcript clone was amplified from an HEK 293 cDNA library, incorporating flanking 5′ sequence encoding a FLAG tag ([…]) (SEQ ID NO.:2) fused directly to Met 1 of PRMT1. The amplified gene was subcloned into pFastBacI (Life Technologies) modified to encode an N-terminal GST tag and a TEV cleavage sequence
Recombinant baculovirus were generated according to Bac-to-Bac kit instructions (Life Technologies). Protein over-expression was accomplished by infecting exponentially growing High Five insect cell culture at 1.5×10^6 cell/ml with 1:100 ratio of virus. Infections were carried out at 27° C. for 48 hours, harvested by centrifugation, and stored at −80° C. for purification.
GST-tagged PRMT1 was eluted with 50 mM Tris, 2 mM glutathione, pH 7.8, dialysed in buffer A and concentrated to 1 mg/mL. The purity of recovered protein was 73%. Reference: Wasilko, D. J. and S. E. Lee: “TIPS: titerless infected-cells preservation and scale-up” Bioprocess J., 5 (2006), pp. 29-32.
General Procedure for PRMT1 Enzyme Assays on Peptide Substrates.
The assays were all performed in a buffer consisting of 20 mM Bicine (pH=7.6), 1 mM TCEP, 0.005% BSG, and 0.002% Tween 20, prepared on the day of use. Compounds in 100% DMSO (1 ul) were spotted into a polypropylene 384-well V-bottom plates (Greiner) using a Platemate Plus outfitted with a 384-channel head (Thermo Scientific). DMSO (1 ul) was added to Columns 11, 12, 23, 24, rows A-H for the maximum signal control and 1 ul of SAH, a known product and inhibitor of PRMT1, was added to columns 11, 12, 23, 24, rows I-P for the minimum signal control. A cocktail (40 ul) containing the PRMT1 enzyme was added by Multidrop Combi (Thermo-Fisher). The compounds were allowed to incubate with PRMT1 for 30 min at room temperature, then a cocktail (10 ul) containing SAM and peptide was added to initiate the reaction (final volume=51 ul). The final concentrations of the components were as follows: PRMT1 was 0.5 nM, ^3H-SAM was 200 nM, non-radiolabeled SAM was 1.5 uM, peptide was 20 nM, SAH in the minimum signal control wells was 1 mM, and the DMSO concentration was 2%. The assays were stopped by the addition of non-radiolabeled SAM (10 ul) to a final concentration of 300 uM, which dilutes the ^3H-SAM to a level where its incorporation into the peptide substrate is no longer detectable. 50 ul of the reaction in the 384-well polypropylene plate was then transferred to a 384-well Flashplate and the biotinylated peptides were allowed to bind to the streptavidin surface for at least 1 hour before being washed once with 0.1% Tween20 in a Biotek ELx405 plate washer. The plates were then read in a PerkinElmer TopCount plate reader to measure the quantity of ^3H-labeled peptide bound to the Flashplate surface, measured as disintegrations per minute (dpm) or alternatively, referred to as counts per minute (cpm).
Where dpm=disintegrations per minute, cmpd=signal in assay well, and min and max are the respective minimum and maximum signal controls. […]
One may read the IC50 as the point on the concentration scale where inhibition reaches its midpoint. The low end stands for inhibition by little substance, the high end for a need for much substance. The molecule `CNCCN(C)Cc1scnc1[C@H]1CC[C@@]2(CC1)CC(C)(C)CO2` [compound 62] had an IC50 of 4.18 nM.
Molecule `CCC1(CC)CC2(CCC(c3n[nH]cc3CN(C)CCNC)CC2)N(C)C1=O` (stereo not shown) [compound 22, 3,3-diethyl-1-methyl-8-(4-((methyl(2-(methylamino)ethyl)amino)methyl)-1H-pyrazol-3-yl)-1-azaspiro[4.5]decan-2-one] had an IC50 of 13.1 nM.
To `CNCCN(C)Cc1nn(C)cc1[C@H]1CC[C@@]2(CC1)CC(C)(C)CO2` [compound 81] belongs 22.8 nM; to `CNCCN(C)Cc1c[nH]nc1C1C[C@H](C(=O)NCCOC)C(C)(C)[C@H](C(=O)NCCOC)C1` (stereo partly shown) [compound 13], greater than 10000 nM.
For the molecule `CNCCN(C)Cc1c(C)noc1[C@H]1CC[C@@]2(CC1)CC(C)(C)CO2` [compound 113], half-maximal inhibition (IC50) required 79.5 nM.
To `CNCCN(C)Cc1nocc1[C@H]1CC[C@@]2(CC1)CC(C)(C)CO2` [compound 117] belongs 51.3 nM; to `CNCCN(C)Cc1c[nH]nc1[C@@H]1CC[C@@H](OCCCOC)C2(CCCC2)C1` (racemic) [compound 26, N1-((3-((7R,10R)-10-(3-methoxypropoxy)spiro[4.5]decan-7-yl)-1H-pyrazol-4-yl)methyl)-N1,N2-dimethylethane-1,2-diamine], 14.3 nM.
Molecule `CCOCC1(COCC)CCC(c2nn(C)cc2CN(C)CCN)CC1` [compound 124] yielded an IC50 of 13.7 nM.
With `CNCCN(C)Cc1nncn1[C@H]1CC[C@@]2(CC1)CC(C)(C)CO2` [compound 68], inhibition was half-maximal at 4330 nM (IC50).
For `CC[C@]12CC[C@](CC)(C[C@@H](c3n[nH]cc3CN(C)CCNC)C1)O2` [compound 38, N1-((3-((1R,3s,5S)-1,5-diethyl-8-oxabicyclo[3.2.1]octan-3-yl)-1H-pyrazol-4-yl)methyl)-N1,N2-dimethylethane-1,2-diamine], the half-maximal inhibitory concentration (IC50) was 111 nM.
The molecule `CCOCC1(COCC)CCC(c2n[nH]cc2CN(C)CCN)CC1` [compound 123] yielded an IC50 of 4.28 nM.
The molecule `CNCCN(C)Cc1nn[nH]c1[C@H]1CC[C@]2(CC1)CC(C)(C)CO2` [compound 89] showed an IC50 of 59.7 nM.
Consider `CNCCN(C)Cc1nn(C)nc1[C@H]1CC[C@@]2(CC1)CC(C)(C)CO2` [compound 64], for which the IC50 is 31.9 nM.
The molecule `CNCCN(C)Cc1c[nH]nc1C1=CCC(CF)(CF)CC1` [compound 15, N-((3-(4,4-bis(fluoromethyl)cyclohex-1-en-1-yl)-1H-pyrazol-4-yl)methyl)-N1,N2-dimethylethane-1,2-diamine] showed an IC50 of 5.6 nM.
In turn, `CN(CCN)Cc1c[nH]nc1[C@H]1CC[C@@]2(CC1)CC(C)(C)CO2` [compound 105] gave an IC50 of 5.68 nM.
To `CNCCN(C)Cc1c[nH]nc1[C@@H]1CC[C@H](OCCCOC)C2(CCCC2)C1` (racemic) [compound 27, N1-((3-((7R,10S)-10-(3-methoxypropoxy)spiro[4.5]decan-7-yl)-1H-pyrazol-4-yl)methyl)-N1,N2-dimethylethane-1,2-diamine] belongs 6.58 nM; to `CN(CCN)Cc1nn(C)cc1[C@H]1CC[C@]2(CC1)CC(C)(C)CO2` [compound 102], 21.2 nM.
Under `CNCCNCc1c[nH]nc1[C@H]1CC[C@@]2(CC1)CC(C)(C)CO2` [compound 28, N1-((3-((5s,8s)-3,3-dimethyl-1-oxaspiro[4.5]decan-8-yl)-1H-pyrazol-4-yl)methyl)-N2-methylethane-1,2-diamine] stands 13.2 nM; under `Cc1[nH]nc([C@H]2CC[C@@]3(CC2)CC(C)(C)CO3)c1CN(C)CCN` [compound 51, N1-((3-((5s,8s)-3,3-dimethyl-1-oxaspiro[4.5]decan-8-yl)-5-methyl-1H-pyrazol-4-yl)methyl)-N1-methylethane-1,2-diamine], 12 nM; under `CNCCN(C)Cc1c[nH]nc1C1=CCC(COCC(F)(F)F)CC1` (stereo not shown) [compound 16, N1,N2-dimethyl-N1-((3-(4-((2,2,2-trifluoroethoxy)methyl)cyclohex-1-en-1-yl)-1H-pyrazol-4-yl)methyl)ethane-1,2-diamine], 11.2 nM.
On to `CNCCN(C)Cc1nc(C)sc1[C@H]1CC[C@]2(CC1)CC(C)(C)CO2` [compound 99], for which the IC50 came to 35.6 nM.
To `CCC1CC(c2n[nH]cc2CN(C)CCNC)CC(C(=O)NCCOC)C1(C)C` (stereo not shown) [compound 21, 3-ethyl-N-(2-methoxyethyl)-2,2-dimethyl-5-[4-([methyl[2-(methylamino)ethyl]amino]methyl)-1H-pyrazol-3-yl]cyclohexane-1-carboxamide dihydrochloride] belongs 246 nM.
`CNCCN(C)Cc1nc(C)sc1[C@H]1CC[C@@]2(CC1)CC(C)(C)CO2` [compound 77] registered a concentration for half-maximal inhibition (IC50) of 22.9 nM.
`CCC1(CC)C[C@]2(CC[C@H](c3n[nH]cc3CN(C)CCNC)CC2)OC1=O` [compound 33, (5s,8s)-3,3-diethyl-8-(4-((methyl(2-(methylamino)ethyl)amino)methyl)-1H-pyrazol-3-yl)-1-oxaspiro[4.5]decan-2-one] had an IC50 of 13.2 nM.
With `CNCCN(C)Cc1nccn1[C@H]1CC[C@]2(CC1)CC(C)(C)CO2` [compound 91], it took 1020 nM to reach half-maximal inhibition (IC50).
With `CCN(C)C(=O)C1CC(c2n[nH]cc2CN(C)CCNC)CC(C(=O)NCCC(C)C)C1(C)C` (stereo not shown) [compound 14, N1-ethyl-N3-isopentyl-N1,2,2-trimethyl-5-(4-((methyl(2-(methylamino)ethyl)amino)methyl)-1H-pyrazol-3-yl)cyclohexane-1,3-dicarboxamide], the half-maximal inhibitory concentration (IC50) is greater than 10000 nM.
To `CNCCN(C)Cc1scnc1[C@H]1CC[C@]2(CC1)CC(C)(C)CO2` [compound 84] belongs 14 nM; to `CNCCNCc1c[nH]nc1[C@H]1CC[C@]2(CC1)CC(C)(C)CO2` [compound 29, N1-((3-((5r,8r)-3,3-dimethyl-1-oxaspiro[4.5]decan-8-yl)-1H-pyrazol-4-yl)methyl)-N2-methylethane-1,2-diamine], 193 nM; to `CNCCN(C)Cc1c[nH]nc1C1CCC(C)(C)[C@H](CO)C1` (stereo partly drawn) [compound 32, [(1R)-2,2-dimethyl-5-[4-({methyl[2-(methylamino)ethyl]amino}methyl)-1H-pyrazol-3-yl]cyclohexyl]methanol], 22.1 nM.
As for `CCOCC1(COCC)CC=C(c2n[nH]cc2CN(C)CCNC)CC1` [compound 60], the IC50 came to 14.9 nM.
Molecule `CCCOCC1(COCCC)CCC(c2n[nH]cc2CN(C)CCNC)CC1` [compound 36, N^1-((3-(4,4-bis(propoxymethyl)cyclohexyl)-1H-pyrazol-4-yl)methyl)-N^1,N^2-dimethylethane-1,2-diamine] came in with an IC50 of 7.93 nM.
On to `CCOCC1(COCC)CCC(c2nn(C)cc2CN(C)CCNC)CC1` [compound 122], for which the IC50 was 21.1 nM.
In turn, `CNCCN(C)Cc1c[nH]nc1[C@H]1CC[C@]2(CCCCO2)CC1` [compound 127, methyl([2-[methyl([3-[(6s,9r)-1-oxaspiro[5.5]undecan-9-yl]-1H-pyrazol-4-yl]methyl)amino]ethyl])amine bistrifluoroacetic acid salt] returned an IC50 of 7.33 nM.
The molecule `CNCCN(C)Cc1nncn1[C@H]1CC[C@]2(CC1)CC(C)(C)CO2` [compound 90] gave an IC50 greater than 10000 nM.
